From US7199132B2, “Tropane analogs and methods for inhibition of monoamine transport” (Organix, Inc., priority 2001, dated 2007)
Like-named read-outs stand apart in the source and are kept apart here.

Columns and labels:
dopamine transporter = molecular target: T1, dopamine transporter (Macaca fascicularis, UniProt Q9GJT6); assay: Dopamine transporter assay: inhibition of {3H}WIN 35,428 binding in caudate-putamen membranes; design: species or system rhesus or cynomolgus monkey; settings: for IC50: inhibition of {3H}WIN 35,428 binding, mean of 2 or more independent experiments in triplicate; for SERT/DAT: selectivity ratio IC50 SERT / IC50 DAT
T1 construct: The caudate-putamen was dissected from coronal slices and yielded 1.4±0.4 g tissue; Membranes were prepared as described previously; from tissue; host or cells: caudate-putamen membranes of cynomolgus or rhesus monkey brain
T1 sequence (Q9GJT6 whole entry): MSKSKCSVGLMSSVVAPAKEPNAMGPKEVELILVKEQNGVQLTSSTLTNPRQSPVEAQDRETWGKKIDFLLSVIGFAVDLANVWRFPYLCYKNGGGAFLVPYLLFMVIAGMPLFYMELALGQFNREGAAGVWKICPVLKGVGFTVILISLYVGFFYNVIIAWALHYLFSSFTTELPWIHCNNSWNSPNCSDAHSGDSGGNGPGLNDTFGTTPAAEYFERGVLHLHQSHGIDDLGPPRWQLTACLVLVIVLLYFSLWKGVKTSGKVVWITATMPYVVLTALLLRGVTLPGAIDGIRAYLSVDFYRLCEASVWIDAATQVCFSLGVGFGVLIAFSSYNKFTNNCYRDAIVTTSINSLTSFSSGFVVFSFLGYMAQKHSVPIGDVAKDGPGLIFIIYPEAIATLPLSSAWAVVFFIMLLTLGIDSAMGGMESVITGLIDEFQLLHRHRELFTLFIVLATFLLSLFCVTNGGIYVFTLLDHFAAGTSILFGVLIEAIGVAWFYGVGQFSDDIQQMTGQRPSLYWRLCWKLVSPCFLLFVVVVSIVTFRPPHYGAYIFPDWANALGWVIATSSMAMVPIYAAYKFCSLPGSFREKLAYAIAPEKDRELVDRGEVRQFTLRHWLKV

serotonin transporter = molecular target: T2, serotonin transporter (Macaca mulatta, UniProt Q9MYX0); assay: Serotonin transporter assay: inhibition of {3H}citalopram binding in caudate-putamen membranes; design: species or system rhesus or cynomolgus monkey; settings: IC50 (nM) SERT, monkey caudate-putamen, mean of 2 or more independent experiments in triplicate
T2 construct: The serotonin transporter was assayed in caudate-putamen membranes using conditions similar to those for the dopamine transporter; from tissue; host or cells: caudate-putamen membranes of cynomolgus or rhesus monkey brain
T2 sequence (Q9MYX0 whole entry): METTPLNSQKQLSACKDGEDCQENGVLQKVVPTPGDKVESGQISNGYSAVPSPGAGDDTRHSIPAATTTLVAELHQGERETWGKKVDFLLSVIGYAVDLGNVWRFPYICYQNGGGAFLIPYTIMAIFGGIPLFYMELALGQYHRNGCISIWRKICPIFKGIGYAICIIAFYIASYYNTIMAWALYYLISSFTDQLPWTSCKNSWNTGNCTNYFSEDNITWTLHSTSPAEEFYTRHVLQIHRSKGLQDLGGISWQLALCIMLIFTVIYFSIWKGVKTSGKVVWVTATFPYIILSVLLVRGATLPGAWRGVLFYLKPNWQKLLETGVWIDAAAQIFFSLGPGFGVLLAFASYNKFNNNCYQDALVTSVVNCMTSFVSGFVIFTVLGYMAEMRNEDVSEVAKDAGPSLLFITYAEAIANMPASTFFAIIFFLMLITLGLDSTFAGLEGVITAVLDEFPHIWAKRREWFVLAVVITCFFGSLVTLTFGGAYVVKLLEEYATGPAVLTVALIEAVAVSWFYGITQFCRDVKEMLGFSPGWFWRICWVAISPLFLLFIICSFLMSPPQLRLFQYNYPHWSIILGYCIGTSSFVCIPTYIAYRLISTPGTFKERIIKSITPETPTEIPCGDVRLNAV

[1] = IC50 (nM) DAT, monkey caudate-putamen

SMILES	IC50 (dopamine transporter; [1])	SERT/DAT (dopamine transporter)	melting point	IC50 (serotonin transporter)	also measured
COC(=O)[C@@H]1[C@H]2CC[C@@H](C[C@H]1c1ccc3ccccc3c1)N2C (relative stereo) [Compound 16b, reference compound]	0.57 nM	10	–	–	–
COC(=O)[C@@H]1[C@H]2C[C@H](O)[C@@H](C[C@H]1c1ccc(Cl)c(Cl)c1)N2C (relative stereo) [Compound 17a, 2β-Carbomethoxy-3α-(3,4-dichlorophenyl)-6β-hydroxy-8-methyl-8-azabicyclo{3.2.1}octane]	–	238	129.1 to 131.1 °C	–	–
COC(=O)C1=C(c2ccc(F)cc2)CC2CCC1N2C (centres unmarked) [Compound 6c, reference compound]	408 nM	20	–	7990 nM	–
COC(=O)C1=C(c2ccc(Cl)c(Cl)c2)C[C@@H]2[C@@H](O)C[C@H]1N2C (racemic) [Compound 7a, 2-Carbomethoxy-3-(3,4-dichlorophenyl)-6β-hydroxy-8-methyl-8-azabicyclo{3.2.1}oct-2-ene]	–	60	94 to 96 °C	3320 nM	–
COC(=O)C1=C(c2ccc3ccccc3c2)CC2CCC1N2C (centres unmarked) [Compound 6b, reference compound]	2.94 nM	37	–	109 nM	–
COC(=O)C1=C(c2ccc(F)cc2)C[C@@H]2C[C@@H](O)[C@H]1N2C (racemic) [Compound 8c, 2-Carbomethoxy-3-(4-fluorophenyl)-7β-hydroxy-8-methyl-8-azabicyclo{3.2.1}oct-2-ene]	–	1	–	> 10000 nM	–
COC(=O)[C@@H]1[C@H]2[C@H](O)C[C@@H](C[C@H]1c1ccc3ccccc3c1)N2C (relative stereo) [Compound 18b, 2β-Carbomethoxy-3α-(2-naphthyl)-7β-hydroxy-8-methyl-8-azabicyclo{3.2.1}octane]	–	34	140.1 to 141.9 °C	94 nM	–
COC(=O)C1C(c2ccc(Cl)c(Cl)c2)CC2CC(O)C1N2C (racemic) [Compound 15a, 2β-Carbomethoxy-3β-(3,4-dichlorophenyl)-7β-hydroxy-8-methyl-8-azabicyclo{3.2.1}octane]	–	20	185.5 to 186.5 °C	27.7 nM	–
COC(=O)C1=C(c2ccc(F)cc2)CC2C(O)CC1N2C (stereo not drawn) [Compound 7c, 2-Carbomethoxy-3-(4-fluorophenyl)-6β-hydroxy-8-methyl-8-azabicyclo{3.2.1}oct-2-ene]	> 20000 nM	1	124 to 126 °C	> 20000 nM	–
COC(=O)[C@@H]1[C@H]2C[C@H](O)[C@@H](C[C@H]1c1ccc(F)cc1)N2C (relative stereo) [Compound 17c, 2β-Carbomethoxy-3α-(4-fluorophenyl)-6β-hydroxy-8-methyl-8-azabicyclo{3.2.1}octane]	–	8	148 to 150 °C	–	–
COC(=O)C1=C(c2ccc(Cl)c(Cl)c2)CC2CCC1N2C (centres unmarked) [Compound 6a, reference compound]	1.16 nM	747	–	867 nM	–
COC(=O)[C@@H]1[C@H]2[C@H](O)C[C@@H](C[C@@H]1c1ccccc1)N2C (racemic) [Compound 15d, 2β-Carbomethoxy-3β-phenyl-7β-hydroxy-8-methyl-8-azabicyclo{3.2.1}octane]	–	–	165.8 to 167.8 °C	> 10000 nM	–
COC(=O)C1=C(c2ccc(Cl)c(Cl)c2)C[C@@H]2C[C@@H](O)[C@H]1N2C (racemic) [Compound 8a, 2-Carbomethoxy-3-(3,4-dichlorophenyl)-7β-hydroxy-8-methyl-8-azabicyclo{3.2.1}oct-2-ene]	–	–	130.4 to 132.4 °C	> 6000 nM	–
COC(=O)[C@H]1[C@@H](c2ccc(Cl)c(Cl)c2)C[C@@H]2CC[C@H]1N2C [Compound 13a, (1R)-3β-(3,4-di-chlorophenyl)-tropane-2β-carboxylic acid methyl ester, reference compound]	–	2	–	2.47 nM	–
COC(=O)[C@@H]1[C@H]2C[C@H](O)[C@@H](C[C@H]1c1ccccc1)N2C (relative stereo) [Compound 17d, 2β-Carbomethoxy-3α-phenyl-6β-hydroxy-8-methyl-8-azabicyclo{3.2.1}octane]	–	>3	138 to 140 °C	–	–
COC(=O)[C@@H]1[C@H]2[C@H](O)C[C@@H](C[C@H]1c1ccc(Cl)c(Cl)c1)N2C (relative stereo) [Compound 18a, 2β-Carbomethoxy-3α-(3,4-dichlorophenyl)-7β-hydroxy-8-methyl-8-azabicyclo{3.2.1}octane]	–	–	148.5 to 150 °C	–	–
COC(=O)[C@@H]1[C@H]2C[C@@H](O)[C@@H](C[C@H]1c1ccc(Cl)c(Cl)c1)N2C (relative stereo) [Compound 30a, 2β-Carbomethoxy-3α-(3,4-dichlorophenyl)-6α-hydroxy-8-methyl-8-azabicyclo{3.2.1}octane]	–	–	161.2 to 162.2 °C	10700 nM	–
COC(=O)C1C(c2ccc(Cl)c(Cl)c2)CC2CC(O)C1N2C (single isomer, unassigned) [Compound (1R)-18a]	265 to 2690 nM	–	–	–	–

SMILES	IC50 (dopamine transporter; [1])	SERT/DAT (dopamine transporter)	melting point	IC50 (serotonin transporter)	also measured
COC(=O)[C@H]1[C@@H](c2ccc(Cl)c(Cl)c2)C[C@@H]2CC(=O)[C@H]1N2C (relative stereo) [Compound 19, 2β-Carbomethoxy-3β-(3,4-dichlorophenyl)-8-methyl-8-azabicyclo{3.2.1}oct-7-one]	–	–	84.4 to 86.4 °C	290 nM	–
COC(=O)C1=C(c2ccc(Cl)c(Cl)c2)C[C@@H]2C[C@@H](O)[C@H]1N2C [(1S)-8a, (1S)-2-Carbomethoxy-3-(3,4-dichlorophenyl)-7β-hydroxy-8-methyl-8-azabicyclo{3.2.1}oct-2-ene]	–	–	–	5370 nM	–
COC(=O)[C@@H]1[C@H]2[C@H](O)C[C@@H](C[C@H]1OC(c1ccc(F)cc1)c1ccc(F)cc1)N2C (relative stereo) [Compound 32b, 2β-Carbomethoxy-3α-bis(fluorophenyl)methoxy-7β-hydroxy-8-methyl-8-azabicyclo{3.2.1}octane]	–	–	150 to 152 °C	9560 nM	–
COC(=O)[C@@H]1[C@H]2CC[C@@H](C[C@H]1c1ccc(F)cc1)N2C (relative stereo) [Compound 16c, reference compound]	–	63	–	–	–
COC(=O)[C@@H]1[C@H]2[C@H](O)C[C@@H](C[C@H]1c1ccccc1)N2C (relative stereo) [Compound 18d, 2β-Carbomethoxy-3α-phenyl-7β-hydroxy-8-methyl-8-azabicyclo{3.2.1}octane]	–	–	165 to 167 °C	–	–
COC(=O)[C@@H]1[C@H]2[C@@H](O)C[C@@H](C[C@H]1c1ccc(Cl)c(Cl)c1)N2C (relative stereo) [Compound 30b, 2β-Carbomethoxy-3α-(3,4-dichlorophenyl)-7α-hydroxy-8-methyl-8-azabicyclo{3.2.1}octane]	–	–	121 to 123 °C	991 nM	–
COC(=O)C1C(c2ccc(Cl)c(Cl)c2)CC2CC(O)C1N2C (single isomer, unassigned) [(1R)-15a]	265 to 2690 nM	0.05	–	139 nM	–
COC(=O)C1C(c2ccc(Cl)c(Cl)c2)CC2C[C@@H](O)C1N2C (some centres unmarked) [Compound 33]	–	–	–	533 nM	potency at the DAT relative to cocaine (dopamine transporter; compared with cocaine): almost twice as potent as cocaine
COC(=O)C1=C(c2ccccc2)C[C@@H]2CC[C@H]1N2C (relative stereo) [Compound 6d, reference compound]	–	11	–	28600 nM	–
COC(=O)[C@H]1[C@@H](c2ccc(F)cc2)C[C@@H]2CC[C@H]1N2C [Compound 13c, (1R)-3β-(4-fluorophenyl)tropane-2β-carboxylic acid methyl ester, reference compound]	11 nM	15	–	160 nM	–
COC(=O)C1=C(c2ccc(Cl)c(Cl)c2)C[C@H]2C[C@H](O)[C@@H]1N2C [(1R)-8a, (1R)-2-Carbomethoxy-3-(3,4-dichlorophenyl)-7β-hydroxy-8-methyl-8-azabicyclo{3.2.1}oct-2-ene]	265 to 2690 nM	–	–	1590 nM	–
COC(=O)C1C(c2ccccc2)CC2[C@@H](O)CC1N2C (some centres unmarked) [Compound 34]	–	–	–	> 20000 nM	inhibition of {3H}WIN 35,428 binding, result in words (dopamine transporter; monkey caudate-putamen): inactive
COC(=O)[C@H]1[C@@H](c2ccccc2)C[C@@H]2CC[C@H]1N2C (relative stereo) [Compound 13d, reference compound]	65 nM	–	–	–	–
COC(=O)C1C(c2ccc(Cl)c(Cl)c2)CC2CC(O)C1N2C (single isomer, unassigned) [Compound (1S)-18a]	0.3 to 7.4 nM	–	–	–	fold more selective (DAT vs SERT) than 16a (dopamine transporter; compared with 16a): 22 fold; fold more selective (DAT vs SERT) than (1S)-15a (dopamine transporter; compared with (1S)-15a): 32 fold
COC(=O)[C@@H]1[C@H]2C[C@H](O)[C@@H](C[C@H]1OC(c1ccc(F)cc1)c1ccc(F)cc1)N2C (relative stereo) [Compound 32a, 2β-Carbomethoxy-3α-bis(4-fluorophenyl)methoxy-6β-hydroxy-8-methyl-8-azabicyclo{3.2.1}octane]	–	–	–	4850 nM	–
COC(=O)C1C(c2ccc3ccccc3c2)CC2CCC1N2C (centres unmarked) [Compound 13b, reference compound]	–	5	–	–	–
COC(=O)[C@@H]1[C@H]2CC[C@@H](C[C@H]1c1ccc(Cl)c(Cl)c1)N2C [Compound 16a, reference compound]	–	73	–	–	IC50 (dopamine transporter; monkey caudate-putamen, read-out: IC50 (nM) DAT): 0.38 nM
COC(=O)C1C(c2ccc(Cl)c(Cl)c2)CC2CC(O)C1N2C (single isomer, unassigned) [(1S)-15a]	0.3 to 7.4 nM	50	–	15 nM	fold more selective (DAT vs SERT) than 13a (dopamine transporter; compared with 13a): 25 fold
